# Assay results: patent publication US7459450B2, “Neuropeptide receptor modulators” (Schering Corporation, priority 2004, dated 2008)
# Target: T1, Human NPY Y1 receptors (Homo sapiens, UniProt P25929)
# T1 construct: expressed in transfected cells; host or cells: CHO cells (membrane protein)
# T1 sequence (P25929 1-384): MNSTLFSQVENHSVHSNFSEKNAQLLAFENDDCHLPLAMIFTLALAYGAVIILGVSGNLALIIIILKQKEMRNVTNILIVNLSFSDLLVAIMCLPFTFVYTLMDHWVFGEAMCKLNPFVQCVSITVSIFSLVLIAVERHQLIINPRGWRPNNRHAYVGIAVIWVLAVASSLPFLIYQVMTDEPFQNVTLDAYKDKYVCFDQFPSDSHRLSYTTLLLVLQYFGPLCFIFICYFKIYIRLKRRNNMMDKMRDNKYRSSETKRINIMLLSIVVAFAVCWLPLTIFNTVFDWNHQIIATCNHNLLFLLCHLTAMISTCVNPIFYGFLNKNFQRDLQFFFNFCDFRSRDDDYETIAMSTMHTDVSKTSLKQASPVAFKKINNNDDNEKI
# Assay: NPY Receptor Binding Assay
# Conditions: not given
# Method: NPY Receptor Binding Assay
# Human NPY Y1 receptors were expressed in CHO cells. Binding assays were performed in 50 mM HEPES, pH 7.2, 2.5 mM CaCl2, 1 mM MgCl2 and 0.1% BSA containing 5-10 μg of membrane protein and 0.1 nM […] in a total volume of 200 μl. Non-specific binding was determined in the presence of 1 μM NPY. The reaction mixtures were incubated for 90 minutes at room temperature then filtered through Millipore MAFC glass fiber filter plates which had been pre-soaked in 0.5% polyethleneimine. The filters were washed with phosphate-buffered saline, and radioactivity was measured in a Packard TopCount scintillation counter.
row,SMILES,Ki
1,COc1cccc2sc(NCCc3ccc(/N=C4/N[C@@H](C)C(=O)S4)cc3)nc12 [Example 368],> 10 µM
2,COc1cccc2sc(NCCc3ccc(/N=C4/N[C@@H](Cc5ccccc5)C(=O)S4)cc3)nc12 [Example 401],> 10 µM
3,Cc1ccc2nc(NCCc3ccc(/N=C4/N[C@@H](CC(=O)O)C(=O)S4)cc3)sc2c1 [Example 380],> 10 µM
4,C[C@@H]1N/C(=N/c2ccc(CCNc3nc4ccc(S(C)(=O)=O)cc4s3)cc2)SC1=O [Example 354],> 10 µM
5,O=C1S/C(=N\c2ccc(CCNc3nc4ccc([N+](=O)[O-])cc4s3)cc2)N[C@H]1Cc1ccccc1 [Example 355],> 10 µM
6,CSCC[C@@H]1N/C(=N/c2ccc(CCNc3nc4ccc(S(C)(=O)=O)cc4s3)cc2)SC1=O [Example 388],> 10 µM
7,O=C1S/C(=N\c2ccc(CCNc3nc4ccc([N+](=O)[O-])cc4s3)cc2)N2CCC[C@@H]12 [Example 341],> 10 µM
8,CC(C)[C@@H]1N/C(=N/c2ccc(CCNc3nc4ccc(Cl)cc4s3)cc2)SC1=O [Example 384],> 10 µM
9,Cc1cccc2sc(NCCc3ccc(/N=C4/N[C@@H](CC(=O)O)C(=O)S4)cc3)nc12 [Example 372],> 10 µM
10,O=C1CN/C(=N/c2ccc(CCNc3nc4ccccc4s3)cc2)S1 [Example 377],> 10 µM
11,COc1cccc2sc(NCCc3ccc(/N=C4/N[C@@H](CC(=O)O)C(=O)S4)cc3)nc12 [Example 367],> 10 µM
12,CSCC[C@@H]1N/C(=N/c2ccc(CCNc3nc4ccc([N+](=O)[O-])cc4s3)cc2)SC1=O [Example 414],> 10 µM
13,O=C1S/C(=N\c2ccc(CCNc3nc4ccccc4s3)cc2)N2CCC[C@@H]12 [Example 398],> 10 µM
14,COc1ccc2nc(NCCc3ccc(/N=C4/N[C@@H](CC(=O)O)C(=O)S4)cc3)sc2c1 [Example 348],> 10 µM
15,Cc1ccc2nc(NCCc3ccc(/N=C4\SC(=O)[C@@H]5CCCN45)cc3)sc2c1 [Example 379],> 10 µM
16,Cc1cccc2sc(NCCc3ccc(/N=C4/N[C@@H](CC(C)C)C(=O)S4)cc3)nc12 [Example 370],> 10 µM
17,O=C(O)C[C@@H]1N/C(=N/c2ccc(CCNc3nc4ccc(Cl)cc4s3)cc2)SC1=O [Example 358],> 10 µM
18,O=C(O)C[C@@H]1N/C(=N/c2ccc(CCNc3nc4ccc([N+](=O)[O-])cc4s3)cc2)SC1=O [Example 342],> 10 µM
19,CC(C)C[C@@H]1N/C(=N/c2ccc(CCNc3nc4ccccc4s3)cc2)SC1=O [Example 396],> 10 µM
20,CC(C)C1NC(=Nc2ccccc2CCNc2nc3ccccc3s2)SC1=O (stereo not shown) [Example 404],> 10 µM
21,COc1cccc2sc(NCCc3ccc(/N=C4/N[C@@H](C(C)C)C(=O)S4)cc3)nc12 [Example 365],> 10 µM
22,C[C@@H]1N/C(=N/c2ccc(CCNc3nc4cc(Cl)c(Cl)cc4s3)cc2)SC1=O [Example 393],> 10 µM
23,Cc1ccc2nc(NCCc3ccc(/N=C4/N[C@@H](Cc5ccccc5)C(=O)S4)cc3)sc2c1 [Example 350],> 10 µM

# Same assay, conditions: Procedure A compounds, rated A/B/C
row,SMILES,Ki
1,c1cc(CCNc2nc3ccccc3s2)cc(NC2=NCCS2)c1 [Example 25],> 10 µM
2,Cc1ccc2nc(NCCc3ccc(NC4=NCCS4)cc3)sc2c1 [Example 17],1 to 10 µM
3,COc1cccc2sc(NCCc3ccc(NC4=NCCS4)cc3)nc12 [Example 22],1 to 10 µM

# Same assay, conditions: Procedure B compounds, rated A/B/C
row,SMILES,Ki
1,CCOC(=O)N1CC(c2ccccc2)N=C1Nc1ccc(CCNc2nc3ccccc3s2)cc1 (stereo not shown) [Example 27],> 10 µM

# Same assay, conditions: Procedure C compounds, rated A/B/C
row,SMILES,Ki
1,CC(C)C[C@@H]1N=C(Nc2ccc(CCNc3nc4ccccc4s3)cc2)N(C(=O)c2ccccc2)C1=O [Example 53],> 10 µM
2,CCOC(=O)N1C(=O)[C@H](CC2CCCCC2)N=C1Nc1ccc(CCNc2nc3ccccc3s2)cc1 [Example 39],> 10 µM
3,O=C(c1ccccc1)N1C(=O)[C@H](CC2CCCCC2)N=C1Nc1ccc(CCNc2nc3ccccc3s2)cc1 [Example 50],> 10 µM
4,CSCC[C@@H]1N=C(Nc2ccc(CCNc3nc4ccccc4s3)cc2)N(C(=O)c2ccccc2)C1=O [Example 54],> 10 µM

# Same assay, conditions: Procedure D compound, rated A/B/C
row,SMILES,Ki
1,COC1CN=C(Nc2ccc(CCNc3nc4ccccc4s3)cc2)S1 (stereo not shown) [compound 61],1 to 10 µM

# Same assay, conditions: Procedure E compounds, rated A/B/C
row,SMILES,Ki
1,COc1ccc2nc(NCCc3ccc(/N=C4\SC5Cc6ccccc6[C@@H]5N4C)cc3)sc2c1 (stereo partly shown) [Example 77],> 10 µM
2,Cc1ccc2nc(NCCc3ccc(/N=C4\SC5Cc6ccccc6[C@@H]5N4C)cc3)sc2c1 (stereo partly shown) [Example 222],> 10 µM
3,c1ccc(C2CN/C(=N\c3cccc(CCNc4nc5ccccc5s4)c3)S2)cc1 (stereo not shown) [Example 186],> 10 µM
4,CC1CCSC(Nc2ccc(CCNc3nc4ccccc4s3)cc2)=N1 (stereo not shown) [Example 200],< 1 µM
5,COc1ccc2nc(NCCc3ccc(/N=C4/N[C@H](CC(C)C)CS4)cc3)sc2c1 [Example 82],< 1 µM
6,C[C@@H]1CS/C(=N\c2ccc(CCNc3nc4ccccc4s3)cc2)N1 [Example 268],< 1 µM
7,COc1ccc2nc(NCCc3ccc(/N=C4/NC(C)(C)CS4)cc3)sc2c1 [Example 221],1 to 10 µM
8,CCC1CS/C(=N\c2ccc(CCNc3nc4ccc(OC)cc4s3)cc2)N1 (stereo not shown) [Example 84],< 1 µM
9,O=[N+]([O-])c1ccc2nc(NCCc3ccc(N=C4NCCCS4)cc3)sc2c1 [Example 62],> 10 µM
10,Cc1ccc2nc(NCCc3ccc(/N=C4/N[C@@H](Cc5ccccc5)CS4)cc3)sc2c1 [Example 87],1 to 10 µM
11,CCCC1CS/C(=N\c2ccc(CCNc3nc4ccc(Cl)cc4s3)cc2)N1 (stereo not shown) [Example 105],< 1 µM
12,CC(C)C1CCSC(Nc2ccc(CCNc3nc4ccccc4s3)cc2)=N1 (stereo not shown) [Example 334],< 1 µM
13,CC(C)C[C@@H]1CS/C(=N\c2ccc(CCNc3nc4ccccc4s3)cc2)N1 [Example 134],< 1 µM
14,CC1(C)CS/C(=N\c2ccc(CCNc3nc4ccc(Cl)cc4s3)cc2)N1 [Example 240],1 to 10 µM
15,C[C@@H]1N/C(=N/c2ccc(CCNc3nc4ccccc4s3)cc2)SC1c1ccccc1 (stereo partly shown) [Example 191],> 10 µM
16,Cc1ccc2nc(NCCc3ccc(/N=C4/N[C@H](C)CS4)cc3)sc2c1 [Example 95],< 1 µM

row,SMILES,Ki
1,CS(=O)(=O)c1ccc2nc(NCCc3ccc(/N=C4/N[C@@H](Cc5c[nH]cn5)CS4)cc3)sc2c1 [Example 116],1 to 10 µM
2,c1ccc2sc(NCCc3ccc(NC4=NC(C5CCCCC5)CCS4)cc3)nc2c1 (stereo not shown) [Example 201],< 1 µM
3,Cc1ccc2nc(NCCc3ccc(/N=C4/N[C@@H](C)C(c5ccccc5)S4)cc3)sc2c1 (stereo partly shown) [Example 323],> 10 µM
4,Cc1cccc2sc(NCCc3ccc(/N=C4/NCCCS4)cc3)nc12 [Example 209],> 10 µM
5,CC[C@@H]1CS/C(=N\c2ccc(CCNc3nc4ccc(OC)cc4s3)cc2)N1 [Example 219],1 to 10 µM
6,COc1cccc2sc(NCCc3ccc(/N=C4/NC(c5ccccc5)CCS4)cc3)nc12 (stereo not shown) [Example 206],> 10 µM
7,CC(C)C[C@@H]1CS/C(=N\c2ccc(CCNc3nc4ccc(S(C)(=O)=O)cc4s3)cc2)N1 [Example 245],1 to 10 µM
8,COc1ccc2nc(NCCc3ccc(/N=C4\SC5Cc6ccccc6[C@@H]5N4C4CC4)cc3)sc2c1 (stereo partly shown) [Example 79],> 10 µM
9,c1ccc(C2CN/C(=N/c3ccc(CCNc4nc5ccccc5s4)cc3)S2)cc1 (stereo not shown) [Example 192],> 10 µM
10,CCCCC1CS/C(=N\c2ccc(CCNc3nc4ccc(S(C)(=O)=O)cc4s3)cc2)N1 (stereo not shown) [Example 111],1 to 10 µM
11,Cc1ccc2nc(NCCc3ccc(/N=C4/N[C@@H](C(C)C)CS4)cc3)sc2c1 [Example 93],1 to 10 µM
12,Cc1cccc2sc(NCCc3ccc(/N=C4/NCC(C)S4)cc3)nc12 (stereo not shown) [Example 327],> 10 µM
13,O=[N+]([O-])c1ccc2nc(NCCc3ccc(/N=C4/NC(c5ccccc5)CCS4)cc3)sc2c1 (stereo not shown) [Example 67],> 10 µM
14,COc1ccc2nc(NCCc3ccc(/N=C4/NC5(CCCC5)CS4)cc3)sc2c1 [Example 220],1 to 10 µM
15,O=[N+]([O-])c1ccc2nc(NCCc3ccc(/N=C4/NC5(CCCC5)CS4)cc3)sc2c1 [Example 75],1 to 10 µM
16,CC(C)C[C@@H]1CS/C(=N\c2ccc(CCNc3nc4ccc(Cl)cc4s3)cc2)N1 [Example 100],1 to 10 µM

# Same assay, conditions: Procedure G compounds, rated A/B/C
row,SMILES,Ki
1,O=C(O)c1csc(Nc2ccc(CCNc3nc4ccccc4s3)cc2)n1 [Example 435],> 10 µM
2,c1ccc2sc(NCCc3ccc(Nc4nc(C56C[C@H]7C[C@@H](C5)C[C@@H](C6)C7)cs4)cc3)nc2c1 [Example 424],> 10 µM
3,COc1ccccc1-c1csc(Nc2ccc(CCNc3nc4ccccc4s3)cc2)n1 [Example 425],> 10 µM
4,COc1ccc(-c2csc(Nc3ccc(CCNc4nc5ccccc5s4)cc3)n2)cc1 [Example 436],> 10 µM
5,CNC(=O)c1sc(Nc2ccc(CCNc3nc4ccccc4s3)cc2)nc1C [Example 418],> 10 µM
6,CCOC(=O)CC(C)(C)c1csc(Nc2ccc(CCNc3nc4ccccc4s3)cc2)n1 [Example 434],> 10 µM

# Same assay, conditions: Procedure H compounds, rated A/B/C
row,SMILES,Ki
1,O=C1CSC(Nc2ccc(CCNc3nc4ccccc4s3)cc2)=N1 [Example 439],> 10 µM
2,O=C1N=C(Nc2ccc(CCNc3nc4ccccc4s3)cc2)SC1CCO (stereo not shown) [Example 441],> 10 µM

# Same assay, conditions: Table 1, rated A/B/C
row,SMILES,Ki
1,CC1CCSC(Nc2ccc(CCNc3nc4ccccc4s3)cc2)=N1 (stereo not shown) [Example 11],< 1 µM
